Drawing on paper PMC3410613 (Frontiers in Plant Science, 2012), this text covers Kd for one compound.

The Kd is a measure of binding affinity in units of concentration.

For this test, the target named is T1, A. thaliana PII (H6PII-tp) (Arabidopsis thaliana, UniProt Q9ZST4).
T1 sequence (Q9ZST4 62-196): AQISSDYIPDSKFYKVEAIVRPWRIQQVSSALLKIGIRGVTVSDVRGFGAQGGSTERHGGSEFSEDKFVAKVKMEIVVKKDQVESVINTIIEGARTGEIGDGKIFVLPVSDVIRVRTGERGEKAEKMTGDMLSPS
Kind of test: isothermal titration calorimetry. It is filed as binding. Background: In ITC the heat of successive injections is recorded.

On to `O=C(O)CCC(=O)C(=O)O` [2OG, 2-oxoglutarate], for which binding was put at a Kd of 111 ± 3.4 µM.
